The text below walks through data of publication PMC8329197, “Compounds targeting OSBPL7 increase ABCA1-dependent cholesterol efflux preserving kidney function in two models of kidney disease” (Nature Communications, 2021).

In general, Ki refers to the equilibrium dissociation constant of an inhibitor or competing ligand from its target. As usually defined, the EC50 is the concentration at which the effect is half-maximal.

Where “and” joins values, the source holds several entries; their conditions need not be identical. Equal entries are not always repeated.

For test [1], the target named is human cannabinoid 1 receptor (hCB1-R) (Homo sapiens, UniProt P21554). The test is described as follows: Potency for binding to the CB1R in vitro (Ki). The settings on record: for Ki: human CB1 receptor binding.
Test [2] has as its system human THP1 macrophages. The test is described as follows: apoAI-mediated (ABCA1) cholesterol efflux from cholesterol-loaded THP1 macrophages. Type of test: cell-based. More on the design: ABCA1 Efflux %: dose or concentration left out as unconfirmed.
In test [3] the test system is T1, OSBPL7 single mutations in the putative ORD.
T1 construct: Plasmids expressing each as a full-length protein with a C-terminal FLAG tag were obtained; expressed in transfected cells; host or cells: HEK293
The test can be described thus: ^3H-Cpd K binding to OSBPL7 single mutants (cross-linking/immunoprecipitation). More on the design: species or system human. The note with it: K636A vs wild type. The source says: Based on the model, we identified key amino acid residues predicted to line the OSBPL7 ligand-binding pocket, and introduced a series of single mutations. Each mutant was transfected into cells and tested for ^3H-Cpd K binding. Mutation of lysine 636 to alanine reduced the ability of Cpd K to be crosslinked to OSBPL7 by ~75% (Fig. 3b). […] The homology model also predicts that a hydrophobic beta sheet lines the pocket, defined by amino acids that are conserved in the ORDs of other OSBPs (Ile641, Val616, Val618, and Lys636).
Briefly, a plasmid expressing a candidate target of interest fused with a FLAG tag was transfected into HEK293 cells. After 24 h, tritiated compound K at a concentration capable of inducing ABCA1-mediated cholesterol efflux (1.0 μM) was added for 3 h, then the live cells were exposed to UV-light (ʎ = 336 nm) to query potential compound/target cross-linking in situ. Cell lysates were prepared, the expressed protein was then selectively immunoprecipitated using an anti-FLAG antibody coupled to sepharose beads, bound proteins were separated by SDS-PAGE, and two identical blots were prepared and probed by western blot and by autoradiography to detect protein expression and presence or absence of compound crosslinking, respectively. The flow chart of this screen is illustrated in Fig. 2. […]

Test [4] deals with T2, OSBPL7.
T2 construct: Plasmids expressing each as a full-length protein with a C-terminal FLAG tag were obtained; expressed in transfected cells; host or cells: HEK293
The test can be described thus: Competition with ^3H-Cpd K UV cross-linking to FLAG-tagged OSBPL7 in HEK293 cells (immunoprecipitation, autoradiography). It counts as binding, human. Details: OSBP7 percentage of inhibition / OSBP7 percentage of inhibition, average: concentration or dose not given beside the values; OSBPL7 Competition %: dose or concentration left out as unconfirmed. On the procedure:
Briefly, a plasmid expressing a candidate target of interest fused with a FLAG tag was transfected into HEK293 cells. After 24 h, tritiated compound K at a concentration capable of inducing ABCA1-mediated cholesterol efflux (1.0 μM) was added for 3 h, then the live cells were exposed to UV-light (ʎ = 336 nm) to query potential compound/target cross-linking in situ. Cell lysates were prepared, the expressed protein was then selectively immunoprecipitated using an anti-FLAG antibody coupled to sepharose beads, bound proteins were separated by SDS-PAGE, and two identical blots were prepared and probed by western blot and by autoradiography to detect protein expression and presence or absence of compound crosslinking, respectively. The flow chart of this screen is illustrated in Fig. 2. Figure 2d illustrates the ability of Cpd A and Cpd G to displace tritiated Cpd K from overexpressed and immunoprecipitated OSBPL7. Figure 3b illustrates the use of this assay to detect binding of tritiated Cpd K to overexpressed and immunoprecipitated variants of OSBPL7 containing point mutations in the predicted oxysterol binging pocket of OSBPL7. The advantages of this method are: i. the use of plasmid transfection leads to high expression of each candidate which reduces the likelihood to miss an authentic target for those which may be expressed at low endogenous levels, ii. the interaction of the chemical probe with its target occurs in a relevant biological context (live cells) at a pharmacologically active concentration, and iii. immunoprecipitation allows the expressed protein of interest to be purified from background proteins, substantially improving the signal/noise ratio.

Sequence of human cannabinoid 1 receptor (hCB1-R) (P21554 whole entry): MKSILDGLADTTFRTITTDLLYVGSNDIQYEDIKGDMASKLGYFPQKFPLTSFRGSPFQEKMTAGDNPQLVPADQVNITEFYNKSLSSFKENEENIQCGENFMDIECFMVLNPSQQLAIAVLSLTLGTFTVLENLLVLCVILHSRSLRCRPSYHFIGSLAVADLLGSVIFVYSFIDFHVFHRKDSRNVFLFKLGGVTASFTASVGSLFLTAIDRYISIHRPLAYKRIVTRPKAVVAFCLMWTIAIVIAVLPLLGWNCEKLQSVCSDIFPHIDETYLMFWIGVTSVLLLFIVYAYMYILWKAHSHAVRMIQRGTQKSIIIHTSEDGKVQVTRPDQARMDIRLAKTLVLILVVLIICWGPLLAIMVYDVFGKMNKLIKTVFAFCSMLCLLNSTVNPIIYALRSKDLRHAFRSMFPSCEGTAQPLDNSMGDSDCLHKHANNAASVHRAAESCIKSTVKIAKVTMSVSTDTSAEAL

For `[3H]c1nc(OCC2CC2)c(-c2ccc(N=[N+]=[N-])c(Cl)c2)c([3H])c1C(=O)N[C@@H]1CCCC[C@H]1O` [^3H-Cpd K], the Ki in test [1] was 2.57 µM. In addition, in test [2] (THP-1, apoAI-dependent cholesterol efflux from human THP1 cells), the EC50 was 0.2 µM. For the same molecule, in test [3], the “Reduction of binding/crosslinking to OSBPL7 by mutation K636A” value was ~ 75%.
As for `[N-]=[N+]=Nc1ccc(-c2cc(C(=O)N[C@@H]3CCCC[C@H]3O)cnc2OCC2CC2)cc1Cl` [Cpd K, 5-(4-azido-3-chlorophenyl)-6-(cyclopropylmethoxy)-N-[(1R,2R)-2-hydroxycyclohexyl]-3-pyridine-carboxamide], the “OSBP7 percentage of inhibition, average” value in test [4] (average of 3) turned out to be 68%. Also, the “OSBPL7 Competition %” value in test [4] (average(SEM)) was 68(3.8) %. The “OSBP7 percentage of inhibition” value in test [4] (single experiments (3 per compound)) is 62% and 75% and 68%. Besides, the “Competition for ^3H-Cpd K binding to OSBPL7” value in test [4] (unlabeled Cpd K at 50-fold excess, Cpd A, Cpd G 10 and 50 µM) is on record as “effectively competed”. Affinity in test [1] was put at a Ki of 2.57 µM. Moreover, the “Fold reduced affinity for hCB1R” value in test [1] (vs Cpd H) is reported as “more than 200 fold”. Besides, the “ABCA1 percentage of induction, average” value in test [2] (average of 3) stood at 49%. Further, the “ABCA1 Efflux %” value in test [2] (average(SEM)) is 49(10.7) %. Also, the “Reduction of binding/crosslinking to OSBPL7 by mutation K636A” value in test [3] is on record as ~ 75%.
